From patent US9938261B2, “Heterocyclic compounds and methods of use thereof” (AMBIT BIOSCIENCES CORPORATION, priority 2011, dated 2018)

What was measured:
M-NFS-60 cells = experiment: M-NFS-60 cell proliferation assay (Alamar Blue); assay type: cell-based, mouse; details: Mus musculus; M-NFS-60 cell proliferation; read-out: CSF1R M-NFS-60 CTB:IC50
How it was run: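 Alamar Blue reduction (3 h; 560/590 nm) measured viability after 72 h, 37 °C treatment with nine half-log compound concentrations at 0.5% DMSO. Cells: M-CSF-dependent (20 ng/mL) murine M-NFS-60 in RPMI plus 10% FBS. IC50s, averaged from duplicates, reflect half-maximal inhibition of proliferation relative to control.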

FLT3 = biological target: T1, FLT3 (Homo sapiens, UniProt P36888); experiment: Competition binding assay, FLT3 Kd; details: competition binding
T1 construct: made in house
T1 sequence (P36888 27-993): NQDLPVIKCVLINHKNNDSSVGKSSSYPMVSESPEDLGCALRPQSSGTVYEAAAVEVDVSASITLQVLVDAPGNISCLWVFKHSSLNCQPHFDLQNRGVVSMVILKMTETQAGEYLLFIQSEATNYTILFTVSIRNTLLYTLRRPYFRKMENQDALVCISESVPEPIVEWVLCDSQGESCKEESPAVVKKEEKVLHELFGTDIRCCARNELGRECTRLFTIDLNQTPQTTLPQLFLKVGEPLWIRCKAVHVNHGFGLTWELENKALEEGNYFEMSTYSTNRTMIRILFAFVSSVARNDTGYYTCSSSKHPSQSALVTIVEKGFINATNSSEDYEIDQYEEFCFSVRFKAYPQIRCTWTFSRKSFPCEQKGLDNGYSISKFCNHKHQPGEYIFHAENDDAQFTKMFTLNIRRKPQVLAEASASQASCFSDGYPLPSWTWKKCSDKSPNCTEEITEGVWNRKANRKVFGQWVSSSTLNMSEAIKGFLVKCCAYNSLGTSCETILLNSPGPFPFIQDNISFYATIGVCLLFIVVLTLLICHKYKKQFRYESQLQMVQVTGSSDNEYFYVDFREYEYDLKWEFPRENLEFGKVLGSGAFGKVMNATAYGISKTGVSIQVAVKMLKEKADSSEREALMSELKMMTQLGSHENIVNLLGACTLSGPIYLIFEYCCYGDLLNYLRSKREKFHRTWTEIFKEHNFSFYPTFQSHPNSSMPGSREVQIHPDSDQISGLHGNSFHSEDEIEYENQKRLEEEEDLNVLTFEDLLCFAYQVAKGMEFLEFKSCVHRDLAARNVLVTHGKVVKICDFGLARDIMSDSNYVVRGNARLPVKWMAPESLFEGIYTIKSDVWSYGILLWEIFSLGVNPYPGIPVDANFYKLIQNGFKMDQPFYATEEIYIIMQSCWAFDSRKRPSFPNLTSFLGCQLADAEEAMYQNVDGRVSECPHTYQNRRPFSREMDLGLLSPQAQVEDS
How it was run: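 Kinases, either T7 phage fusions or HEK-293-expressed and DNA-tagged, competed with test compounds for immobilized biotinylated affinity ligand on streptavidin beads in binding buffer (20% SeaBlock, 0.17×PBS, 0.05% Tween 20, 6 mM DTT). After 1 hour at room temperature, bead-bound kinase was eluted and quantified by qPCR; Kd from eleven-point threefold dilutions.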

Compound | IC50 (M-NFS-60 cells) | Kd (FLT3)
CC(C)(O)c1cnc2c(c1)ncn2Cc1ccc2nc(N[C@@H]3CCCC[C@H]3O)sc2c1 [Example 109, (1R,2R)-2-((6-((6-(2-hydroxypropan-2-yl)-3H-imidazo[4,5-b]pyridin-3-yl)methyl)benzo[d]thiazol-2-yl)amino)cyclohexanol] | 50 to 400 nM | 1000 to 5000 nM
O[C@@H]1[C@H](O)CCC[C@H]1Nc1nc2ccc(Cc3cnc4cc(-n5cccn5)ccn34)cc2s1 [Example 229, (1R,2S,3R)-3-((6-((7-(1H-pyrazol-1-yl)imidazo[1,2-a]pyridin-3-yl)methyl)benzo[d]thiazol-2-yl)amino)cyclohexane-1,2-diol] | 50 to 400 nM | 200 to 1000 nM
O[C@@H]1[C@H](O)CCC[C@H]1Nc1nc2ccc(Cn3cnc4cc(N5CCOCC5)ccc43)cc2s1 [Example 235, (1R,2S,3R)-3-((6-((5-morpholino-1H-benzo[d]imidazol-1-yl)methyl)benzo[d]thiazol-2-yl)amino)cyclohexane-1,2-diol] | 50 to 400 nM | 200 to 1000 nM
O[C@@H]1[C@H](O)CCC[C@H]1Nc1nc2ccc(Cn3cnc4cc(OC5COC5)ccc43)cc2s1 [Example 233, (1R,2S,3R)-3-((6-((5-(oxetan-3-yloxy)-1H-benzo[d]imidazol-1-yl)methyl)benzo[d]thiazol-2-yl)amino)cyclohexane-1,2-diol] | 50 to 400 nM | 200 to 1000 nM
CNC(=O)c1ccc2ncc(Cc3ccc4nc(N[C@@H]5CCCC[C@H]5O)sc4c3)n2n1 [Example 143, 3-((2-(((1R,2R)-2-hydroxycyclohexyl)amino)benzo[d]thiazol-6-yl)methyl)-N-methylimidazo[1,2-b]pyridazine-6-carboxamide] | 400 to 1500 nM | 1000 to 5000 nM
O[C@@H]1CCCC[C@H]1Nc1nc2ccc(Cc3cnc4cnccn34)cc2s1 [Example 125, (1R,2R)-2-((6-(imidazo[1,2-a]pyrazin-3-ylmethyl)benzo[d]thiazol-2-yl)amino)cyclohexanol] | 400 to 1500 nM | 1000 to 5000 nM
C#Cc1ccc2c(c1)ncn2Cc1ccc2nc(N[C@@H]3CCCC[C@H]3O)sc2c1 [Example 121, (1R,2R)-2-((6-((5-ethynyl-1H-benzo[d]imidazol-1-yl)methyl)benzo[d]thiazol-2-yl)amino)cyclohexanol] | 50 to 400 nM | 1000 to 5000 nM
OC[C@H]1CCCC[C@H]1Nc1nc2ccc(Cn3cnc4cc(Br)cnc43)cc2s1 [Example 136, ((1S,2R)-2-((6-((6-bromo-3H-imidazo[4,5-b]pyridin-3-yl)methyl)benzo[d]thiazol-2-yl)amino)cyclohexyl)methanol] | 50 to 400 nM | 1000 to 5000 nM
O[C@@H]1CCCC[C@H]1Nc1nc2ccc(Cc3cnc4cccnn34)cc2o1 [Example 142, (1R,2R)-2-((6-(imidazo[1,2-b]pyridazin-3-ylmethyl)benzo[d]oxazol-2-yl)amino)cyclohexanol] | 50 to 400 nM | ≤ 200 nM
O[C@@H]1CCCC[C@H]1Nc1nc2ccc(Cn3cnc4cc(-n5ccnc5)ccc43)cc2s1 [Example 226, (1R,2R)-2-((6-((5-(1H-imidazol-1-yl)-1H-benzo[d]imidazol-1-yl)methyl)benzo[d]thiazol-2-yl)amino)cyclohexanol] | ≤ 50 nM | 200 to 1000 nM
N#Cc1cc2ncn(Cc3ccc4nc(N[C@@H]5CCCC[C@H]5O)sc4c3)c2nc1C#N [Example 139, 3-((2-(((1R,2R)-2-hydroxycyclohexyl)amino)benzo[d]thiazol-6-yl)methyl)-3H-imidazo[4,5-b]pyridine-5,6-dicarbonitrile] | 400 to 1500 nM | 200 to 1000 nM
O[C@@H]1CCCC[C@H]1Nc1nc2ccc(Cc3cnc4ccc(N5CCOCC5)nn34)cc2s1 [Example 155, (1R,2R)-2-((6-((6-morpholinoimidazo[1,2-b]pyridazin-3-yl)methyl)benzo[d]thiazol-2-yl)amino)cyclohexanol] | 50 to 400 nM | ≤ 200 nM
Cc1ccc2c(c1)ncn2Cc1ccc2nc(N[C@@H]3CCCC[C@H]3O)sc2c1 [Example 127, (1R,2R)-2-((6-((5-methyl-1H-benzo[d]imidazol-1-yl)methyl)benzo[d]thiazol-2-yl)amino)cyclohexanol] | 50 to 400 nM | 1000 to 5000 nM
O[C@@H]1CCCC[C@H]1Nc1nc2ccc(Cc3cnc4cccnn34)cc2s1 [Example 131, (1R,2R)-2-((6-(imidazo[1,2-b]pyridazin-3-ylmethyl)benzo[d]thiazol-2-yl)amino)cyclohexanol] | ≤ 50 nM | ≤ 200 nM
CC(O)c1cnc2c(c1)ncn2Cc1ccc2nc(N[C@@H]3CCCC[C@H]3O)sc2c1 (stereo partly drawn) [Example 115, (1R,2R)-2-((6-((6-((R,S)-1-hydroxyethyl)-3H-imidazo[4,5-b]pyridin-3-yl)methyl)benzo[d]thiazol-2-yl)amino)cyclohexanol] | 50 to 400 nM | 1000 to 5000 nM
COc1ccc2ncc(Cc3ccc4nc(N[C@@H]5CCCC[C@H]5O)sc4c3)n2c1 [Example 165, (1R,2R)-2-((6-((6-methoxyimidazo[1,2-a]pyridin-3-yl)methyl)benzo[d]thiazol-2-yl)amino)cyclohexanol] | 400 to 1500 nM | > 5000 nM
O[C@@H]1CCCC[C@H]1Nc1nc2ccc(Cn3cnc4cc(-n5cccn5)cnc43)cc2s1 [Example 141, (1R,2R)-2-((6-((6-(1H-pyrazol-1-yl)-3H-imidazo[4,5-b]pyridine-3-yl)methyl)benzo[d]thiazol-2-yl)amino)cyclohexanol] | ≤ 50 nM | 200 to 1000 nM
CC(=O)c1ccc2ncn(Cc3ccc4nc(N[C@@H]5CCCC[C@H]5O)sc4c3)c2c1 [Example 120, 1-(1-((2-(((1R,2R)-2-hydroxycyclohexyl)amino)benzo[d]thiazol-6-yl)methyl)-1H-benzo[d]imidazol-6-yl)ethanone] | 50 to 400 nM | 1000 to 5000 nM
C#Cc1ccc2ncn(Cc3ccc4nc(N[C@@H]5CCCC[C@H]5O)sc4c3)c2c1 [Example 122, (1R,2R)-2-((6-((6-ethynyl-1H-benzo[d]imidazol-1-yl)methyl)benzo[d]thiazol-2-yl)amino)cyclohexanol] | 50 to 400 nM | 200 to 1000 nM
O[C@@H]1CCCC[C@H]1Nc1nc2ccc(Cn3cnc4cc(F)ccc43)cc2s1 [Example 129, (1R,2R)-2-((6-((5-fluoro-1H-benzo[d]imidazol-1-yl)methyl)benzo[d]thiazol-2-yl)amino)cyclohexanol] | 50 to 400 nM | 1000 to 5000 nM
O[C@@H]1CCCC[C@H]1Nc1nc2ccc(Cn3cnc4cc(C(F)(F)F)ccc43)cc2s1 [Example 130, (1R,2R)-2-((6-((5-(trifluoromethyl)-1H-benzo[d]imidazol-1-yl)methyl)benzo[d]thiazol-2-yl)amino)cyclohexanol] | 50 to 400 nM | 1000 to 5000 nM
O[C@@H]1CCCC[C@H]1Nc1nc2ccc(Cc3cnc4ccc(-n5cccn5)cn34)cc2s1 [Example 159, (1R,2R)-2-((6-((6-(1H-pyrazol-1-yl)imidazo[1,2-a]pyridin-3-yl)methyl)benzo[d]thiazol-2-yl)amino)cyclohexanol] | 400 to 1500 nM | 1000 to 5000 nM
Oc1ccc2c(c1)ncn2Cc1ccc2nc(N[C@@H]3CCCC[C@H]3O)sc2c1 [Example 147, 1-((2-(((1R,2R)-2-hydroxycyclohexyl)amino)benzo[d]thiazol-6-yl)methyl)-1H-benzo[d]imidazol-5-ol] | 50 to 400 nM | 200 to 1000 nM
CNC(=O)c1ccc2c(c1)ncn2Cc1ccc2nc(N[C@@H]3CCCC[C@H]3O)sc2c1 [Example 173, 1-((2-(((1R,2R)-2-hydroxycyclohexyl)amino)benzo[d]thiazol-6-yl)methyl)-N-methyl-1H-benzo[d]imidazole-5-carboxamide] | 50 to 400 nM | 200 to 1000 nM
O[C@@H]1CCCC[C@H]1Nc1nc2c(Br)cc(Cn3cnc4cccnc43)cc2s1 [Example 166, (1R,2R)-2-((6-((3H-imidazo[4,5-b]pyridin-3-yl)methyl)-4-bromobenzo[d]thiazol-2-yl)amino)cyclohexanol] | 400 to 1500 nM | 200 to 1000 nM
O[C@H]1CC[C@H](Nc2nc3ccc(Cn4cnc5cc(F)cnc54)cc3s2)CC1 [Example 163, trans-4-((6-((6-fluoro-3H-imidazo[4,5-b]pyridin-3-yl)methyl)benzo[d]thiazol-2-yl)amino)cyclohexanol] | > 1500 nM | > 5000 nM
